Data from PubChem BioAssay AID220 (DTP/NCI, 2004).
Values joined by “and” are separate entries in the source; they are usually repeats but may differ in a detail not shown here. Equal entries are not always repeated. Records with an inconclusive call do not appear.

System: CD8F1 mice, subcutaneous mammary adenocarcinoma, T/C%
Experiment: NCI In Vivo Anticancer Drug Screen. Data for tumor model Mammary Adenocarcinoma CD8F1 (subcutaneous) in CD8F1
Conditions: higher = larger tumour
Summary of the method: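 Antitumor activity is assessed in transplantable-tumor mice by comparing the treated group with a vehicle-treated control group. Survival or tumor size serves as the measure, reported as T divided by C.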

[1] = endpoint: median tumor weight change, dose: 62.5 mg/kg/injection, schedule: Q01DX001 (ip), vehicle: saline with Tween-80
[2] = endpoint: median tumor weight change, dose: 250.0 mg/kg/injection, schedule: Q01DX001 (ip), vehicle: saline with Tween-80
[3] = endpoint: median tumor weight (est.), dose: 2.0 mg/kg/injection, schedule: Q07DX005 (ip), vehicle: saline

For COc1c(O)c2c(c3cc(C(=O)N4CCc5c4c(O)c(OC)c4[nH]c(C(=O)N6CC7CC78C6=CC(=O)c6[nH]cc(C)c68)cc54)[nH]c13)CCN2C(N)=O (stereo unspecified), the T/C (endpoint: median tumor weight (est.), dose: 6.25 micrograms/kg/injection, schedule: Q07DX005 (ip), vehicle: DMSO) was 97 % of control and the T/C (endpoint: median tumor weight (est.), dose: 12.5 micrograms/kg/injection, schedule: Q07DX005 (ip), vehicle: DMSO) was 42 % of control.
CCC[CH2][Hg][Cl] was tested, and the T/C (endpoint: median tumor weight (est.), dose: 2.5 mg/kg/injection, schedule: Q07DX005 (ip), vehicle: Klucel (hydroxypropylcellulose) (HPC)) was 197 % of control, the T/C (endpoint: median tumor weight (est.), dose: 5.0 mg/kg/injection, schedule: Q07DX005 (ip), vehicle: Klucel (hydroxypropylcellulose) (HPC)) was 112 % of control and the T/C (endpoint: median tumor weight (est.), dose: 20.0 mg/kg/injection, schedule: Q07DX005 (ip), vehicle: Klucel (hydroxypropylcellulose) (HPC)) was 110 % of control.
For OCC1OC(n2cnc3c(Cl)ncnc32)C(O)C1O (stereo unspecified), the T/C (endpoint: median tumor weight (est.), dose: 12.5 mg/kg/injection, schedule: Q07DX005 (ip), vehicle: saline) was 90 % of control, the T/C (endpoint: median tumor weight (est.), dose: 25.0 mg/kg/injection, schedule: Q07DX005 (ip), vehicle: saline) was 26 % of control and the T/C (endpoint: median tumor weight (est.), dose: 100.0 mg/kg/injection, schedule: Q07DX005 (ip), vehicle: saline) was 28 % of control. For the same compound, the T/C (endpoint: median tumor weight (est.), dose: 200.0 mg/kg/injection, schedule: Q07DX005 (ip), vehicle: saline) was 71 % of control and the T/C (endpoint: median tumor weight (est.), dose: 400.0 mg/kg/injection, schedule: Q07DX005 (ip), vehicle: saline) was 115 % of control.
In the case of CC[C@]1(O)C[C@H](OC2CC(N(C)C)C(OC3CC(O)C(O)C(C)O3)C(C)O2)c2c(cc3c(c2O)C(=O)c2c(O)ccc(O)c2C3=O)[C@H]1C(=O)OC (stereo partly specified), the T/C (endpoint: median tumor weight (est.), dose: 0.5 mg/kg/injection, schedule: Q07DX005 (ip), vehicle: Klucel (hydroxypropylcellulose) (HPC)) is reported as 170 % of control, the T/C (endpoint: median tumor weight (est.), dose: 1.0 mg/kg/injection, schedule: Q07DX005 (ip), vehicle: Klucel (hydroxypropylcellulose) (HPC)) is reported as 204 % of control and the T/C (endpoint: median tumor weight (est.), dose: 4.0 mg/kg/injection, schedule: Q07DX005 (ip), vehicle: Klucel (hydroxypropylcellulose) (HPC)) is reported as 63 % of control.
In the case of C=C(C)[C@]12CC(C)C34OC(/C=C\C=C\CCCCCCCCC)(O[C@@H]1[C@@H]3[C@@H]1O[C@]1(CO)[C@@H](O)[C@]1(O)C(=O)C(C)=C[C@@H]41)O2 (stereo partly specified), the T/C (endpoint: median tumor weight (est.), dose: 0.37 mg/kg/injection, schedule: Q07DX002 (ip), vehicle: saline + alcohol) is reported as 110 % of control, the T/C (endpoint: median tumor weight (est.), dose: 0.37 mg/kg/injection, schedule: Q07DX005 (ip), vehicle: saline + alcohol) is reported as 82 % of control and the T/C (endpoint: median tumor weight (est.), dose: 0.75 mg/kg/injection, schedule: Q07DX002 (ip), vehicle: saline + alcohol) is reported as 121 % of control. The T/C (endpoint: median tumor weight (est.), dose: 0.75 mg/kg/injection, schedule: Q07DX005 (ip), vehicle: saline + alcohol) was 116 % of control, the T/C (endpoint: median tumor weight (est.), dose: 1.5 mg/kg/injection, schedule: Q07DX002 (ip), vehicle: saline + alcohol) was 201 % of control and the T/C (endpoint: median tumor weight (est.), dose: 1.5 mg/kg/injection, schedule: Q07DX005 (ip), vehicle: saline + alcohol) was 72 % of control.
With COc1ccc(S(=O)(=O)N=N/C=C2\C=CC=CN2O)cc1OC the T/C (endpoint: median tumor weight change, dose: 31.25 mg/kg/injection, schedule: Q01DX001 (ip), vehicle: saline with Tween-80) was 60 % of control, the T/C [1] was 87 % of control and the T/C [2] was 106 % of control.
With ClC1=C(Cl)C(Cl)=C(Cl)C1=Cc1ccccc1 the T/C (endpoint: median tumor weight change, dose: 31.0 mg/kg/injection, schedule: Q01DX001 (ip), vehicle: saline with Tween-80) was 100 % of control, the T/C (endpoint: median tumor weight change, dose: 62.0 mg/kg/injection, schedule: Q01DX001 (ip), vehicle: saline with Tween-80) was 63 % of control and the T/C (endpoint: median tumor weight change, dose: 150.0 mg/kg/injection, schedule: Q01DX001 (ip), vehicle: saline with Tween-80) was 33 % of control. The T/C (endpoint: median tumor weight change, dose: 300.0 mg/kg/injection, schedule: Q01DX001 (ip), vehicle: saline with Tween-80) was 73 % of control.
CCc1nc(N)nc(N)c1-c1ccc(Cl)c(N=[N+]=[N-])c1 was tested, and the T/C [1] was 57 % of control, the T/C (endpoint: median tumor weight change, dose: 125.0 mg/kg/injection, schedule: Q01DX001 (ip), vehicle: saline with Tween-80) was 78 % of control and the T/C (endpoint: median tumor weight change, dose: 2000.0 mg/kg/injection, schedule: Q01DX001 (ip), vehicle: saline with Tween-80) was 24 % of control.
With COc1cccc2c1C(=N)c1c(O)c3c(c(O)c1C2=O)C[C@@](O)(C(C)=O)C[C@@H]3OC1CC(N)C(O)C(C)O1 (stereo partly specified) the T/C [3] was 53 % of control, the T/C (endpoint: median tumor weight (est.), dose: 2.97 mg/kg/injection, schedule: Q07DX005 (ip), vehicle: saline) was 50 % of control and the T/C (endpoint: median tumor weight (est.), dose: 3.0 mg/kg/injection, schedule: Q07DX005 (ip), vehicle: saline) was 115 % of control. The T/C (endpoint: median tumor weight (est.), dose: 4.45 mg/kg/injection, schedule: Q07DX005 (ip), vehicle: saline) was 53 % of control and the T/C (endpoint: median tumor weight (est.), dose: 4.5 mg/kg/injection, schedule: Q07DX005 (ip), vehicle: saline) was 96 % of control.
With CNc1nc2c(N)ncnc2n1C1OC(CO)C(O)C1O (stereo unspecified) the T/C (endpoint: median tumor weight (est.), dose: 25.0 mg/kg/injection, schedule: Q07DX005 (ip), vehicle: suspension in saline) was 89 % of control and 91 % of control, the T/C (endpoint: median tumor weight (est.), dose: 50.0 mg/kg/injection, schedule: Q07DX005 (ip), vehicle: suspension in saline) was 76 % of control and 96 % of control and the T/C (endpoint: median tumor weight (est.), dose: 100.0 mg/kg/injection, schedule: Q07DX005 (ip), vehicle: suspension in saline) was 29 % of control.
With O=C1c2ccccc2C(=O)c2c(NCCNCCO)ccc(NCCNCCO)c21 the T/C (endpoint: mean tumor weight, dose: 8.3 mg/kg/injection, schedule: Q07DX004 (ip), vehicle: Klucel (hydroxypropylcellulose) (HPC)) was 60 % of control, the T/C (endpoint: mean tumor weight, dose: 16.6 mg/kg/injection, schedule: Q07DX004 (ip), vehicle: Klucel (hydroxypropylcellulose) (HPC)) was 81 % of control and the T/C (endpoint: mean tumor weight, dose: 31.25 mg/kg/injection, schedule: Q07DX004 (ip), vehicle: Klucel (hydroxypropylcellulose) (HPC)) was 25 % of control. For the same compound, the T/C (endpoint: mean tumor weight, dose: 62.5 mg/kg/injection, schedule: Q07DX004 (ip), vehicle: Klucel (hydroxypropylcellulose) (HPC)) was 59 % of control, the T/C (endpoint: mean tumor weight, dose: 125.0 mg/kg/injection, schedule: Q07DX004 (ip), vehicle: Klucel (hydroxypropylcellulose) (HPC)) was 37 % of control and the T/C [3] was 74 % of control. For the same compound, the T/C (endpoint: median tumor weight (est.), dose: 4.0 mg/kg/injection, schedule: Q04DX005 (ip), vehicle: water) was 97 % of control, the T/C (endpoint: median tumor weight (est.), dose: 4.0 mg/kg/injection, schedule: Q07DX004 (ip), vehicle: water) was 74 % of control and the T/C (endpoint: median tumor weight (est.), dose: 4.0 mg/kg/injection, schedule: Q07DX005 (ip), vehicle: saline) was 92 % of control. The T/C (endpoint: median tumor weight (est.), dose: 4.0 mg/kg/injection, schedule: Q07DX005 (ip), vehicle: water) was 93 % of control, the T/C (endpoint: median tumor weight (est.), dose: 8.0 mg/kg/injection, schedule: Q04DX005 (ip), vehicle: water) was 62 % of control and the T/C (endpoint: median tumor weight (est.), dose: 8.0 mg/kg/injection, schedule: Q07DX004 (ip), vehicle: water) was 69 % of control. The T/C (endpoint: median tumor weight (est.), dose: 8.0 mg/kg/injection, schedule: Q07DX005 (ip), vehicle: saline) was 92 % of control, the T/C (endpoint: median tumor weight (est.), dose: 15.63 mg/kg/injection, schedule: Q04DX005 (ip), vehicle: Klucel (hydroxypropylcellulose) (HPC)) was 30 % of control and the T/C (endpoint: median tumor weight (est.), dose: 15.63 mg/kg/injection, schedule: Q07DX004 (ip), vehicle: Klucel (hydroxypropylcellulose) (HPC)) was 33 % of control. For the same compound, the T/C (endpoint: median tumor weight (est.), dose: 16.0 mg/kg/injection, schedule: Q04DX005 (ip), vehicle: water) was 66 % of control, the T/C (endpoint: median tumor weight (est.), dose: 16.0 mg/kg/injection, schedule: Q07DX004 (ip), vehicle: water) was 72 % of control and the T/C (endpoint: median tumor weight (est.), dose: 16.0 mg/kg/injection, schedule: Q07DX005 (ip), vehicle: saline) was 84 % of control. The T/C (endpoint: median tumor weight (est.), dose: 16.12 mg/kg/injection, schedule: Q04DX005 (ip), vehicle: Klucel (hydroxypropylcellulose) (HPC)) was 9 % of control, the T/C (endpoint: median tumor weight (est.), dose: 16.12 mg/kg/injection, schedule: Q07DX004 (ip), vehicle: Klucel (hydroxypropylcellulose) (HPC)) was 17 % of control and the T/C (endpoint: median tumor weight (est.), dose: 31.25 mg/kg/injection, schedule: Q04DX005 (ip), vehicle: Klucel (hydroxypropylcellulose) (HPC)) was 11 % of control. For the same compound, the T/C (endpoint: median tumor weight (est.), dose: 32.0 mg/kg/injection, schedule: Q01DX001 (ip), vehicle: water) was 63 % of control, the T/C (endpoint: median tumor weight (est.), dose: 32.0 mg/kg/injection, schedule: Q04DX005 (ip), vehicle: water) was 18 % of control and the T/C (endpoint: median tumor weight (est.), dose: 32.0 mg/kg/injection, schedule: Q07DX004 (ip), vehicle: water) was 44 % of control. For the same compound, the T/C (endpoint: median tumor weight (est.), dose: 32.0 mg/kg/injection, schedule: Q07DX005 (ip), vehicle: saline) was 56 % of control, the T/C (endpoint: median tumor weight (est.), dose: 62.5 mg/kg/injection, schedule: Q07DX005 (ip), vehicle: Klucel (hydroxypropylcellulose) (HPC)) was 10 % of control and the T/C (endpoint: median tumor weight (est.), dose: 64.0 mg/kg/injection, schedule: Q07DX004 (ip), vehicle: water) was 7 % of control. For the same compound, the T/C (endpoint: median tumor weight (est.), dose: 64.0 mg/kg/injection, schedule: Q07DX005 (ip), vehicle: water) was 19 % of control.
With CCCCCc1cc(/C=C2/N=C(c3ccc[nH]3)C=C2OC)[nH]c1C the T/C (endpoint: median tumor weight (est.), dose: 0.5 mg/kg/injection, schedule: Q07DX005 (ip), vehicle: suspension in saline) was 169 % of control, the T/C (endpoint: median tumor weight (est.), dose: 1.0 mg/kg/injection, schedule: Q07DX005 (ip), vehicle: suspension in saline) was 85 % of control and the T/C (endpoint: median tumor weight (est.), dose: 4.0 mg/kg/injection, schedule: Q07DX005 (ip), vehicle: suspension in saline) was 82 % of control. For the same compound, the T/C (endpoint: median tumor weight (est.), dose: 8.0 mg/kg/injection, schedule: Q07DX005 (ip), vehicle: suspension in saline) was 95 % of control.
In the case of CN(C)C1C(=O)C(C(=O)NP(=O)(NCCCO)N(CCCl)CCCl)=C(O)C2(O)C(=O)C3=C(O)c4c(O)cccc4C(C)(O)C3CC12 (stereo unspecified), the T/C [2] is reported as 46 % of control and 69 % of control and the T/C (endpoint: median tumor weight change, dose: 500.0 mg/kg/injection, schedule: Q01DX001 (ip), vehicle: saline with Tween-80) is reported as 21 % of control.
